Tests used:
[1] = molecular target: PknG (Mycobacterium tuberculosis, UniProt P9WI73)
[2] = molecular target: PknA (Mycobacterium tuberculosis, UniProt P9WI83)
[3] = molecular target: PknH (Mycobacterium tuberculosis, UniProt P9WI71)
[4] = molecular target: PknJ (Mycobacterium tuberculosis, UniProt P9WI67)
[5] = molecular target: PknE (Mycobacterium tuberculosis, UniProt P9WI77)
[6] = molecular target: PknD (GST-PknD) (Mycobacterium tuberculosis, UniProt P9WI79)
Chain of PknD (GST-PknD) (P9WI79 whole entry): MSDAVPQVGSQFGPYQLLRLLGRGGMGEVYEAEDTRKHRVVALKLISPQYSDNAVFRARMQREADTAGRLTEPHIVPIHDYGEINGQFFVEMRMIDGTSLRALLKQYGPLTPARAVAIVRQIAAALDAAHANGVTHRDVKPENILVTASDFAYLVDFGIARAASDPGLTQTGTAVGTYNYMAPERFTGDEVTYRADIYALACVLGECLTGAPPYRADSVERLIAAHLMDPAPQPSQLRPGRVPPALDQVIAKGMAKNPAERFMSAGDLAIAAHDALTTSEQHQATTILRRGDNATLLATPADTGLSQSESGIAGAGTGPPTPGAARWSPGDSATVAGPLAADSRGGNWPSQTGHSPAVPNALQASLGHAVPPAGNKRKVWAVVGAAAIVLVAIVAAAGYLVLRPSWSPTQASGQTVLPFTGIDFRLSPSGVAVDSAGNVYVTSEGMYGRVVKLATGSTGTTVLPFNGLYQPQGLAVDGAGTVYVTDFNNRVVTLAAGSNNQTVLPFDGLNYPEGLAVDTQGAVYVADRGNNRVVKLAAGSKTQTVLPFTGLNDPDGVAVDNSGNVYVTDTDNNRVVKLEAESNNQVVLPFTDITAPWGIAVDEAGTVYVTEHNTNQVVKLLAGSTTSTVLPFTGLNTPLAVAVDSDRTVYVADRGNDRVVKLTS

Chain of PknH (P9WI71 whole entry): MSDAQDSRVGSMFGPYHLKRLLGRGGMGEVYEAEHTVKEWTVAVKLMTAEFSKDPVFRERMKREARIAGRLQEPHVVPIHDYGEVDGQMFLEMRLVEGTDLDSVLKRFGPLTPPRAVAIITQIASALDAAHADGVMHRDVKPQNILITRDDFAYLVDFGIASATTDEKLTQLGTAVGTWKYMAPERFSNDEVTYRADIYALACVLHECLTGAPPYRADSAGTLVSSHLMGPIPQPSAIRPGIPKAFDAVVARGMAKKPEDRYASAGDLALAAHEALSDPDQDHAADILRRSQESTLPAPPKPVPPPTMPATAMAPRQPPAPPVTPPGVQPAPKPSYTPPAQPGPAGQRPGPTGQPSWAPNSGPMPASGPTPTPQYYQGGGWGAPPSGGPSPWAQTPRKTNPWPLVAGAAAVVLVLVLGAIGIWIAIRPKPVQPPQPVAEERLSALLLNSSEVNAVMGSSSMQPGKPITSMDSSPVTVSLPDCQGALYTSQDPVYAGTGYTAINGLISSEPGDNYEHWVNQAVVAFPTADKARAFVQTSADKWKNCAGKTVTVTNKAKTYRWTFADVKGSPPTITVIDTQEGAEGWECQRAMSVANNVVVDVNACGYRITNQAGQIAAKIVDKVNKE
Chain of PknE (P9WI77 whole entry): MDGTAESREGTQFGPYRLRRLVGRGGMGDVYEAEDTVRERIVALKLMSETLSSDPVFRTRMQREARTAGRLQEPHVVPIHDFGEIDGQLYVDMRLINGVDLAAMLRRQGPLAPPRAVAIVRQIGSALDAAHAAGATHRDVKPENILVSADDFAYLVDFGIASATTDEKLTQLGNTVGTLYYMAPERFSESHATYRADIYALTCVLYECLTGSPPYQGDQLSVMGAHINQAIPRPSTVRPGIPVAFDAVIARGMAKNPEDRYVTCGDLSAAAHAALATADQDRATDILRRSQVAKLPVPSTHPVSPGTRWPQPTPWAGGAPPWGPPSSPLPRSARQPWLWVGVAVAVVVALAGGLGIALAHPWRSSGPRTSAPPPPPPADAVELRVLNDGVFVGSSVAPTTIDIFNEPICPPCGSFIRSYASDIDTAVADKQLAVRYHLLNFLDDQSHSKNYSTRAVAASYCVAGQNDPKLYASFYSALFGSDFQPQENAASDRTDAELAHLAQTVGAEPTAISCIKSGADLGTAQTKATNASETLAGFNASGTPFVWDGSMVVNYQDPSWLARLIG
Chain of PknA (P9WI83 whole entry): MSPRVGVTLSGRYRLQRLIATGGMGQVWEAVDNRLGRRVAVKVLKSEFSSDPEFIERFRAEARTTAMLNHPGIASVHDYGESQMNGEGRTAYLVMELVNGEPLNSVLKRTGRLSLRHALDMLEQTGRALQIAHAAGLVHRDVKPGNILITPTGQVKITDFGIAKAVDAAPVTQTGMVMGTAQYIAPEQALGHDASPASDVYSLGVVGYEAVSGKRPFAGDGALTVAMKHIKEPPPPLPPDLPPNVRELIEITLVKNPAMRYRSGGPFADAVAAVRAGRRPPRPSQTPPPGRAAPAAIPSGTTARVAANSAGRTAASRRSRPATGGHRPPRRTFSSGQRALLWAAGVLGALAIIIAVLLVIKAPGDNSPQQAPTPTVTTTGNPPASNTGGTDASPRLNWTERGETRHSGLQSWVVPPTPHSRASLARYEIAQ
Chain of PknJ (P9WI67 whole entry): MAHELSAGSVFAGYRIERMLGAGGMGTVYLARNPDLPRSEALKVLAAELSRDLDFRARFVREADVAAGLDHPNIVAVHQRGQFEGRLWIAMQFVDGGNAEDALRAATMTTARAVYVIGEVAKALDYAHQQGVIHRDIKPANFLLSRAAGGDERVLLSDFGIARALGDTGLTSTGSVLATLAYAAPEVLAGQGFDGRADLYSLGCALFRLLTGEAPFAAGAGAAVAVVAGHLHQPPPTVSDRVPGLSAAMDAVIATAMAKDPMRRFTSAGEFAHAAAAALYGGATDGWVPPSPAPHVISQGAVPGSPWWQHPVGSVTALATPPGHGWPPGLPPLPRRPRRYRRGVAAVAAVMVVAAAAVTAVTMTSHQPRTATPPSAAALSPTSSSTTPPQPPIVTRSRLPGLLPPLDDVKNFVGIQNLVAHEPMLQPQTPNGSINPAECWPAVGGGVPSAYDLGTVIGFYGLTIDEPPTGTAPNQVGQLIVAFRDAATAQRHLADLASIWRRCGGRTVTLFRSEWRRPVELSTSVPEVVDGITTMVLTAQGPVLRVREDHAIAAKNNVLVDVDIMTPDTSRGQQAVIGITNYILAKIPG
Chain of PknG (P9WI73 whole entry): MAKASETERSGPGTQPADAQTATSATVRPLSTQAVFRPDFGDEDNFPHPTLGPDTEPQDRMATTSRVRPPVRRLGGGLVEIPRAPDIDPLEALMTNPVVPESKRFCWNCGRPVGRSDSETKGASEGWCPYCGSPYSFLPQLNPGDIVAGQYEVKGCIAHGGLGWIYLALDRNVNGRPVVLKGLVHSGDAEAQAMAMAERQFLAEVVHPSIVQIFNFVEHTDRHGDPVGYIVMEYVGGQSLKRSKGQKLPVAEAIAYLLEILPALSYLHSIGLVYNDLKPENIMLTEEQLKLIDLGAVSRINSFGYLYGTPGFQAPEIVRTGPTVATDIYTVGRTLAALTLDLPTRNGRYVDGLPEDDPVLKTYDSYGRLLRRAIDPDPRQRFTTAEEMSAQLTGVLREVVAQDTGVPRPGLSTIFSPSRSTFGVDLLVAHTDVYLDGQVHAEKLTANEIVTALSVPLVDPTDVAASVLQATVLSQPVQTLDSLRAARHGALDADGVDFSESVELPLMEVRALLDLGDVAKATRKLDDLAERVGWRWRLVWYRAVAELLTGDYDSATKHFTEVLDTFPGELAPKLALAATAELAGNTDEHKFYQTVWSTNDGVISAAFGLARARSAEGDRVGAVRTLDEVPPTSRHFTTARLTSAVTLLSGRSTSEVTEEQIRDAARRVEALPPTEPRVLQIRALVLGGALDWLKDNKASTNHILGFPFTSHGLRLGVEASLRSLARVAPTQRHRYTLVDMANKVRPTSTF

How did the “in vitro radiolabelled phosphorylation, SDS-PAGE autoradiography” value (“in vitro radiolabelled phosphorylation” for short) [1] turn out when `Nc1ncnc2c1ncn2[C@@H]1O[C@H](COP(=O)(O)OP(=O)(O)OP(=O)(O)O)[C@@H](O)[C@H]1O` [[γ-^33P]ATP] was run?
Its value is “PknA, PknD, PknE, PknG, PknH and PknJ phosphorylated the (His)6-MDH”.

And the “in vitro radiolabelled phosphorylation” value [2]?
The value was “PknA, PknD, PknE, PknG, PknH and PknJ phosphorylated the (His)6-MDH”.

And the “in vitro radiolabelled phosphorylation” value [3]?
The value was “PknA, PknD, PknE, PknG, PknH and PknJ phosphorylated the (His)6-MDH”.

What about the “in vitro radiolabelled phosphorylation” value [4] of the same molecule?
The value was “PknA, PknD, PknE, PknG, PknH and PknJ phosphorylated the (His)6-MDH”.

And the “in vitro radiolabelled phosphorylation” value [5]?
The value was “PknA, PknD, PknE, PknG, PknH and PknJ phosphorylated the (His)6-MDH”.

And the “in vitro radiolabelled phosphorylation” value [6]?
The value was “the MDH was phosphorylated by PknD, but could not be autophosphorylated”.

From paper PMC4393303 (PLoS ONE, 2015)
